Where “and” joins values, the source holds several entries; their conditions need not be identical. Equal entries are not always repeated.
How the values were obtained:
Th1 cells = test: Proliferation of differentiated Th1 CD4+ T cells; format: cell-based, mouse; conditions: CD4+ T cells already differentiated into Th1 phenotype
Procedure: The differentiation of naive CD4 T cells toward Th1 and Th2 lineages was performed as follows: 1×10^5 AND-lymph node T cells were cultured with […] B10.BR irradiated spleen cells in 2 ml of culture media with the following supplements: for Th1 cell differentiation, 100 U/mL IFNγ, 25U/mL IL2 and 10 ug/mL anti-IL4; for Th2 cell differentiation, 150 U/mL IL4, 25 U/mL IL2 and 10 ug/mL anti-IFNγ. After 3-4 days the wells were split 1:4 with the same additions. After 7 days the cells were harvested and washed 3 times to remove cytokines in the supernatents. 1×10^5 cultured cells were restimulated with 5×10^5 irradiated B10BR spleen cells +5 μM pcc peptide in 250 μl culture media without any added cytokines. The supernatents were harvested after 40 hrs and assessed for IL2, IL4 and IFNγ by ELISA. Test compounds were added throughout the differentiation of the culture.
Cultured Th1 and Th2 cells generated in the absence of test compounds were tested for proliferation and cytokine activity as described above during antigen stimulation in the presence of compound.

[1] = system: High Affinity Rolipram Binding Site of PDE4 in Mouse Brain; test: Displacement of [3H]-rolipram from its high affinity binding site (HARBS); conditions: ratio of IC50 for PDE4 catalytic activity to concentration displacing 50% of rolipram from HARBS
CD8+ T-cells = test: CD8+ T-cell proliferation (2C-TCR transgenic); format: cell-based, mouse; conditions: at 5 μM
Description: 2C-TCR transgenic mice (Sha W. C. et al., Nature 335:271-274, 1988) were used to provide a source of naive antigen specific CD8+T cells. The 2C-T cell antigen receptor recognizes the 2C peptide derived from the mitochondrial alpha-ketoglutarate dehydrogenase enzyme in the context of the Db class I MHC molecule.
To test the efficacy of a test compound in naive CD8+ T cell activation and proliferation, single cell suspensions of 2C lymph node (LN) T cells were isolated from 2C-TCR transgenic mice. 2C-T cells were stimulated with irradiated TAP−/− H-2d splenocytes or L^d transfected TAP−/− T2 cell line in the presence of varying concentrations of 2C peptide (0-10 uM). Proliferation was assessed by ^3H thymidine incorporation. Cell surface activation phenotype of T cells was performed by flow cytometric analysis

[2] = system: IL-2 production in concanavalin A stimulated primary human CD4+ T-cells; test: IL-2 production (Th1 profile) in concanavalin A stimulated primary human CD4+ T-cells; format: cell-based
Description: (§1) The assay on the primary human T-cells involves their activation by concanavalin A (conA); (Sigma, Catalogue No. C 5275), followed by ELISA detection for cytokines for either profile. In the case of Th1-profiles, IL-2 and INF-γ are used as benchmarks while IL-10 is the indicator for a Th2-profile. Biologically, these indicators are useful in that IL-2 is the major T-cell mitogen while IL-10 represents a powerful yet selective immunosuppressive agent.
(§2) Approximately 60 cc of whole human blood was collected into ACD anti-coagulant vacutainer tubes. 15 mL Ficoll Paque 1077 was aliquoted into 6 sterile 50 mL conical tubes. 10 mL of blood was slowly layered on top of the Ficoll Paque by holding the tube upright and resting the pipette tip at the inside edge of the tube and allowing the blood to slowly run down the side of the tube. Tubes were spun at 1700 rpm for 30 minutes at room temperature. The plasma layer above the leukocyte band was aspirated off and a pasteur pipette was used to lift off the leukocyte band and transfer it to a sterile 50 mL conical tube. Cells from each leukocyte gradiant tube were transferred to a separate 50 mL conical tube. Sterile PBS pH 7.4 was added to each 50 mL conical tube containing cells from leukocyte band to a volume of 50 mL. Tubes were spun at 1100 rpm for 10 minutes. Supernatant was aspirated off and the cells were resuspended in 50 mL PBS pH 7.4. Tubes were re-centrifuged at 1100 rpm for 10 minutes. Supernatant was aspirated off and the cells were resuspended in appropriate medium at a density of 5×10^7 cells/mL or 2×10^6 cells/mL.
(§3) CD 4+T-cell Preparation: Cells from Leukocyte preparation were resuspended in sterile PBS pH 7.4 supplemented with 2-6% Fetal Bovine Serum (FBS) at a density of 5×10^7 cells/mL. Cells were then ready for isolation.
(§4) 100 μL of antibody cocktail (Stem Cell Technologies, Catalogue No. 14062) was added for each mL of cells and mixed well. Cells+Ab cocktail was incubated on ice for 30 minutes. After 30 minute incubation, 60 μL of magnetic colloid was added for each mL of cells, and mixed well. Cells+Ab cocktail+magnetic colloid were incubated on ice for 30 minutes. After a final 30 minute incubation cells were ready for magnetic cell separation.
(§5) Sample was loaded into the top of a column. The stopcock was turned to allow the flow of media down through the column, and the media was collected into a collection tube. PBS supplemented with 2-6% FBS was added to the column until three column volumes had been collected (not including the volume of the start sample). Cells were washed, counted, and resuspended in RPMI 1640 with 10% FBS+2 mM L-glutamine at a density of 1×10^6 cells/mL.
(§6) CD4+ T-cells were isolated as described above. Cells were suspended in RPMI 1640 media (Stem Cell Technologies Inc.; Catalogue No. 36750) with 10% FBS+2 mM L-glutamine at a density of 1×10^6 cells/mL. Cells were maintained on ice as test compounds were prepared. Test compounds were prepared in a sterile 96-well assay plate at 50×the final desired test concentration, all wells contained an equal amount of dimethylsulfoxide vehicle. 500 μL of CD4^+ T-cells were added to each well of 24-well assay plate. 10 μL of each test compound working solution was added to the appropriate wells; two wells were left as stimulated and non-stimulated controls. 10 μL of concanavalin A (50×the final concentration) at 10 μg/mL was added to each well with the exception of the non-stimulated control wells. Cells were incubated at 37° C. for 48 hours. Conditioned media is then assessed by ELISA for the quantity of IL-2, […], TNFα and IL-10 present.
(§7) Tables 5A, 5B and 5C represent a synopsis of data across individuals with respects to the potency of compounds of the invention in their ability to inhibit cytokines that are likely to promote or depress a Th1 or Th2 response. […]

[3] = system: tail skin allograft rejection (C57BL/6 donor, BALB/c recipient mice); test: Murine tail skin allograft transplantation model; format: in vivo, mouse; conditions: 10 mg/kg i.p. twice daily
Procedure: Tail skin from donor H-2 b C57BL/6 mice was transplanted onto recipient female H-2^d BALB/c mice (Lagodzinski, Z. et al., Immunology 71:148-150 (1990)). Five mice were included per group. […] Test compounds and CsA were administered twice daily intraperitoneally at a dose of 10 mg/kg beginning at one day prior to transplantation and for 15 days after transplantation, including the day of transplantation. Mice were monitored and scored daily over 15 days post transplantation for graft rejection.
Skin allograft rejection is primarily mediated by T lymphocytes with little evidence for a major role of antibodies under most circumstances. Skin allograft rejection requires the activation of helper and cytotoxic effector T cell populations. Graft rejection was assessed by monitoring allograft necrosis. Because tail skin is visibly distinct from the surrounding trunk skin of the mouse, the course of rejection can be easily monitored. Fully intact grafts were scored as 100%. Complete graft rejection was defined as >90% graft necrosis. Acute graft rejection generally proceeds via a series of visually obvious events beginning with swelling and erythema of the graft. These events are followed by graft desiccation and scab formation over most or all of the graft, signaling the loss of the viable graft tissue. Scab formation is subsequently followed by shrinkage and scar formation.

[4] = system: TNBS-induced colitis in the rat; test: TNBS-induced colitis model of inflammatory bowel disease in the rat;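 also: rat colitis induced by intracolonic TNBS in 50% ethanol, distal colon assessed at sacrifice on day 7, with saline-instilled vehicle-treated rats as controls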
Procedure: Colitis was induced by intracolonic instillation of the hapten TNBS (60 mg/mL) in 0.5 mL of 50% ethanol. […] An additional group of rats received saline intracolonically in place of TNBS/ethanol and was treated with vehicle at the same times as outlined above. Body weights were recorded at the beginning of the study and at days 2 and 7.
The rats were sacrificed on the 7th day after the induction of colitis and the extent of damage and inflammation was assessed. After the rats were sacrificed, the distal colon was removed and pinned out on a wax platform. The presence or absence of diarrhea was noted, as well as the presence and severity of adhesions between the colon and other organs, and the severity and extent of colonic damage. […] After scoring, a sample of colonic tissue was excised for measurement of myeloperoxidase activity as an index of granulocyte infiltration (see Wallace et al., Gastroenterology 117: in press, 1999; and Morris et al., Gastroenterology 96:795-803, 1989). This tissue sample was 1 cm long (along the axis of the colon) and 5 mm wide and was taken from a region of macroscopically visible damage (or the corresponding region in any rats in which there was no damage). The remainder of the tissue was fixed in neutral buffered formalin and processed by routine methods for subsequent evaluation by light microscopy. In a blinded manner, the sample of colonic tissue from each rat was examined for evidence of mucosal ulceration and inflammation. The percentage of the luminal surface of the section in which ulceration was present was calculated.

[5] = system: TNBS-induced colitis in the rat; conditions: dose reduced to 50 mg/kg; cited from earlier work
[6] = system: High Affinity Rolipram Binding Site of PDE4 in Mouse Brain; conditions: values reported for second-generation PDE4 inhibitors; cited from earlier work
[7] = system: K562 chronic myelogenous leukemia cells; test: Anti-proliferative activity in K562 cells (3H-thymidine uptake); format: cell-based, human; conditions: Homo sapiens; K562, 48 hours, 3H-thymidine; X marks this range; read-out: IC50 range (μM) >50
Procedure: 90 μL K562 cells (human chronic myelogenous leukemia cells) were seeded into sterile 96-well assay plates at a density of 1×10^5 cells/mL in RPMI 1640 supplemented with 10% FBS/2 mM L-glutamine. Samples to be tested were prepared in a sterile 96-well assay plate at 10×the final concentration desired. All sample dilutions contained equal amounts of DMSO to compensate for the % DMSO in the highest sample concentration used. Nine concentrations of test compound were examined for effects on growth up to a maximal concentration of 100 μM. 10 μL of the samples and controls (DMSO/normal growth control) were added to the aliquoted cells. The cells were incubated at 37° C./5% CO2 for 48 hours. Following 48 hour incubation, 20 μL of 3H-thymidine was added to each well for a final concentration of 1 μCi/mL. The cells were then incubated at 37° C./5% CO2 for 4 to 6 hours. Following 4-6 hour thymidine pulse, plates were wrapped in plastic and frozen in a −20° C. frost-free freezer overnight. Cells were harvested and ^3H-thymidine counts determined. In order to distinguish between cytotoxicity and cytostatic activity, growth curves were prepared where the average CPM value of the seeding density of cells was plotted on the same curve as the average CPM value for the maximum proliferation attained after 48 hours (DMSO growth control cells). The cells were diluted 1:2 for a concentration range of 7.8×10^3 cells/mL to 2×10^6 cells/mL. 90 μL of each cell dilution was seeded in sterile 96-well assay plated and allowed to equilibrate for approximately 4 hours at 37° C./5% CO2 prior to ^3H-thymidine pulse. The data in Table 15 was obtained as described above, and more specifically, K562 cells were seeded into 96-well plates at 1×10^5 cells/mL in RPMI 1640 supplemented with 10% FBS/2 mM L-glutamine. Various concentrations of test compound or vehicle (DMSO) was added and the cells were incubated at 37° C./5 CO2 for 48 hours. The cells were then pulsed at 37° C./5% CO2 for 4 to 6 hours with 1 μCi/mL ^3H-thymidine. Radioactivity incorporated into DNA was determined after harvesting onto glass fiber filters and scintillation counting.

[8] = system: IL-10 production in concanavalin A stimulated primary human CD4+ T-cells; test: IL-10 production (Th2 profile) in concanavalin A stimulated primary human CD4+ T-cells; format: cell-based; conditions: T-cell, 10 μg/mL Concanavalin A, 48 hours, X marks this range, read-out: IL-10 IC50 RANGE (μM) 0.02-0.2
Description: as §1, §2, §3, §4, §5, §6, §7

[9] = system: TNF-α production in concanavalin-A stimulated primary human CD4+ T-lymphocytes; test: TNF-α production in Con-A stimulated human CD4+ T-cells (ELISA); format: cell-based; conditions: T-lymphocyte, X marks this range, read-out: TNF-alpha IC50 RANGE (μM) <2
Procedure: Activated T-lymphocytes are known to produce TNF-α and may constitute a significant source of this important inflammatory mediator in localized regions of inflammation such as the rheumatoid synovium or psoriatic lesions. Supernatants from cona-stimulated primary human CD4+ T-cells that had been incubated in the presence or absence of a test compound were analyzed for TNF-α using an ELISA system. (Pharingen; recommended anti-TNF antibody set 18631-D and 18642-D). Substantial quantities of TNF-α were induced in vehicle treated T-cells stimulated with conA. […] This may be due to the differing sensitivity of monocyte/macrophages versus T-lymphocytes to elevations in intracellular cAMP with respect to regulatory pathways impacting TNF-α production.
as §2, §3, §4, §5, §6

[10] = system: IFN-gamma production in concanavalin A stimulated primary human CD4+ T-cells; test: IFN-gamma production (Th1 profile) in concanavalin A stimulated primary human CD4+ T-cells; format: cell-based; conditions: T-cell, 10 μg/mL Concanavalin A, 48 hours, X marks this range, read-out: INF-GAMMA IC50 RANGE (μM) 0.2-2.0
Description: as §1, §2, §3, §4, §5, §6, §7

[11] = 100 mg/kg intracolonically at 12 h intervals for one week
[12] = 100 mg/kg intracolonically at 12 h intervals for one week, day 7

In the case of `COc1ccc([C@H]2COC(=O)C(Cc3ccc(OC4CCCC4)c(OC)c3)C2)cc1OC` (some centres unmarked) [Compound 136], the “inhibition of Th1 cells” value (Th1 cells) is reported as “approx. 30%”, the “PDE4:HARBS” value [1] is reported as under 1 and the “inhibition of CD8+ T-cell proliferation” value (CD8+ T-cells) is reported as “approx. 40%”. For the same compound, the “Th1 versus Th2 cytokine profile” value ([2]; conA stimulated CD4+ selected cells) was “selective inhibition of a Th1 profile”, the “Average graft survival” value ([3]; from one day prior to and for 15 days after transplantation) was 15.4 days and 15.4 ± 1.3 days and the “Allograft survival rate (% at 9 days post-transplant)” value ([3]; 9 days post-transplant) was 100%. The “# grafts surviving beyond 16 days p.t.” value ([3]; five mice per group) was 3.

In the case of `Nc1ccc(O)c(C(=O)OCCCCO[N+](=O)[O-])c1` [NCX-456], the “Body Weight Change (%)” value [4, 11] is reported as −5.7 ± 0.3%, the Mortality [4, 11] is reported as 1/8 and the “Adhesion (Incidence)” value [4, 12] is reported as “(2/7)^ζ”. For the same compound, the “Adhesion Score” value [4, 12] was 0.4 ± 0.3, the “Bowel Thickness (mm)” value [4, 12] was 2.02 ± 0.42 mm and the “Damage Score” value [4, 12] was 3.7 ± 0.9. The “Global Colitis Score” value [4, 12] was 6.60 ± 1.67, the “reduction in the colonic damage score” value ([4]; 100 mg/kg, one week) was 50% and the “MPO Activity (U/mg)” value ([4]; colonic tissue, 100 mg/kg intracolonically at 12 h intervals for one week, day 7) was 57.8 ± 11.6 U/mg. The Diarrhea ([4]; incidence, 100 mg/kg intracolonically at 12 h intervals for one week, day 7) was 3/7, the “Histology Score” value ([4]; percentage of luminal surface ulcerated, 100 mg/kg intracolonically for one week, day 7) was 46.4 ± 4.1 and the “therapeutic effects in TNBS model at reduced dose” value [5] was “lost”.

For `COc1ccc(C(=O)Nc2c(Cl)cncc2Cl)cc1OC1CCCC1` [RP 73401], the “ratio of IC50's for PDE4catalytic to PDE4HARBS (reported)” value [6] is given as 3.

For `COc1ccc([C@]2(C#N)CC[C@@H](C(=O)O)CC2)cc1OC1CCCC1` [SB 207499], the “ratio of IC50's for PDE4catalytic to PDE4HARBS (reported)” value [6] is listed as 1.

In the case of `COc1cc(-c2ccc(=O)[nH]n2)ccc1OC(F)F` [Zardaverine, reference compound], the IC50 [7] is reported as over 50 µM, the IC50 [8] is reported as 0.02 to 0.2 µM and the IC50 [9] is reported as under 2 µM. The IC50 ([2]; Homo sapiens, T-cell, 10 μg/mL Concanavalin A, 48 hours, X marks this range, read-out: IL-2 IC50 RANGE (μM) 0.2-2.0) was 0.2 to 2 µM and the IC50 [10] was 0.2 to 2 µM.

Reference: patent US20030186943A1, “Substituted gamma-phenyl-delta-lactams and uses related thereto” (Inflazyme Pharmaceuticals Ltd., priority 1998, published 2003)
